Legend:
Conditions in all cases: treatment: drug + dasatinib (fixed dose, not stated); 5 days
SN12C [1] = assay: GI50 of drug in presence of dasatinib; higher = less potent
Experimental: (§1)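 Primary HTS combination arm: 8 RCC cell lines treated with 8 doses (up to 10 uM) of each library drug plus a fixed dose of dasatinib (dose not stated) for 5 days; viability read by CellTiter-Glo and normalised to DMSO. GI50 was fitted with XLfit, AUC is the area under the dose-response curve, and minimum viability is the lowest fraction of DMSO viability across doses.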

ACHN [2] = assay: as above
Experimental: as §1

786-O [3] = assay: as above
Experimental: as §1

CAKI-1 [4] = assay: as above
Experimental: as §1

A498 [5] = assay: as above
Experimental: as §1

TK-10 [6] = assay: as above
Experimental: as §1

769-P [7] = assay: as above
Experimental: as §1

UO-31 [8] = assay: as above
Experimental: as §1

SN12C [9] = assay: AUC of dose-response viability curve, drug + dasatinib, normalised to DMSO (arbitrary (AUC of normalised viability)); higher = less growth inhibition
Experimental: as §1

ACHN [10] = assay: as above
Experimental: as §1

786-O [11] = assay: as above
Experimental: as §1

CAKI-1 [12] = assay: as above
Experimental: as §1

A498 [13] = assay: as above
Experimental: as §1

TK-10 [14] = assay: as above
Experimental: as §1

769-P [15] = assay: as above
Experimental: as §1

UO-31 [16] = assay: as above
Experimental: as §1

SN12C [17] = assay: minimum viability across doses, drug + dasatinib, relative to DMSO (fraction); higher = less growth inhibition
Experimental: as §1

ACHN [18] = assay: as above
Experimental: as §1

786-O [19] = assay: as above
Experimental: as §1

CAKI-1 [20] = assay: as above
Experimental: as §1

A498 [21] = assay: as above
Experimental: as §1

TK-10 [22] = assay: as above
Experimental: as §1

769-P [23] = assay: as above
Experimental: as §1

UO-31 [24] = assay: as above
Experimental: as §1

| SMILES | GI50 of drug (SN12C [1]) [nM] | GI50 of drug (ACHN [2]) [nM] | GI50 of drug (786-O [3]) [nM] | GI50 of drug (CAKI-1 [4]) [nM] | GI50 of drug (A498 [5]) [µM] | GI50 of drug (TK-10 [6]) [nM] | GI50 of drug (769-P [7]) [nM] | GI50 of drug (UO-31 [8]) [nM] | AUC of dose-response viability curve (SN12C [9]) | AUC of dose-response viability curve (ACHN [10]) | AUC of dose-response viability curve (786-O [11]) | AUC of dose-response viability curve (CAKI-1 [12]) | AUC of dose-response viability curve (A498 [13]) | AUC of dose-response viability curve (TK-10 [14]) | AUC of dose-response viability curve (769-P [15]) | AUC of dose-response viability curve (UO-31 [16]) | minimum viability across doses (SN12C [17]) | minimum viability across doses (ACHN [18]) | minimum viability across doses (786-O [19]) | minimum viability across doses (CAKI-1 [20]) | minimum viability across doses (A498 [21]) | minimum viability across doses (TK-10 [22]) | minimum viability across doses (769-P [23]) | minimum viability across doses (UO-31 [24]) |
| --- | --- | --- | --- | --- | --- | --- | --- | --- | --- | --- | --- | --- | --- | --- | --- | --- | --- | --- | --- | --- | --- | --- | --- | --- |
| CC(C)CC(=O)Nc1n[nH]c2c1CN(C(=O)C1CCN(C)CC1)C2(C)C + Cc1nc(Nc2ncc(C(=O)Nc3c(C)cccc3Cl)s2)cc(N2CCN(CCO)CC2)n1 [dasatinib] | 248 | 18.9 | 85.8 | 842 | 1.29 | 2840 | 3220 | 1960 | 1.7 | 1.11 | 1.21 | 1.99 | 2.59 | 2.43 | 2.32 | 3.13 | 0.00656 | 0.0258 | 0.0032 | 0.0614 | 0.00865 | 0.184 | 0.288 | 0.0113 |
| Cc1ccc(NC(=O)c2cccc(C(C)(C)C#N)c2)cc1Nc1ccc2ncn(C)c(=O)c2c1 [AZ628] + Cc1nc(Nc2ncc(C(=O)Nc3c(C)cccc3Cl)s2)cc(N2CCN(CCO)CC2)n1 [dasatinib] | > 10000 | 146 | > 10000 | 1120 | 6.1 | 1600 | 2470 | 1580 | 2.33 | 1.59 | 2.36 | 2.08 | 3.02 | 2.25 | 2.33 | 2.95 | 0.348 | 0.174 | 0.593 | 0.0806 | 0.409 | 0.311 | 0.214 | 0.0219 |
| COc1cc2c(Oc3ccc4[nH]c(C)cc4c3F)ncnc2cc1OCCCN1CCCC1 [Cediranib (AZD2171)] + Cc1nc(Nc2ncc(C(=O)Nc3c(C)cccc3Cl)s2)cc(N2CCN(CCO)CC2)n1 [dasatinib] | 355 | 210 | 1350 | 287 | 2.39 | 2240 | 3970 | 617 | 1.85 | 1.61 | 2.21 | 1.59 | 2.63 | 2.35 | 2.35 | 2.17 | 0.0758 | 0.0558 | 0.13 | 0.019 | 0.154 | 0.0412 | 0.145 | 0.014 |
| C=CCc1cccc(/C=N/NC(=O)CN2CCN(Cc3ccccc3)CC2)c1O [PAC-1] + Cc1nc(Nc2ncc(C(=O)Nc3c(C)cccc3Cl)s2)cc(N2CCN(CCO)CC2)n1 [dasatinib] | 3460 | 174 | 427 | 1350 | 4.84 | 764 | 1420 | 2010 | 2.41 | 1.49 | 1.73 | 2.07 | 3.38 | 2.04 | 2.17 | 3.14 | 0.0519 | 0.0168 | 0.0103 | 0.0701 | 0.169 | 0.0728 | 0.0266 | 0.0141 |
| CNC(=O)c1nn(C)c2c1C(C)(C)Cc1cnc(Nc3ccc(N4CCN(C)CC4)cc3)nc1-2 + Cc1nc(Nc2ncc(C(=O)Nc3c(C)cccc3Cl)s2)cc(N2CCN(CCO)CC2)n1 [dasatinib] | 261 | 22 | 35.5 | 38.8 | 3.47 | 137 | 245 | 279 | 1.71 | 1.03 | 1.35 | 1.11 | 3.23 | 1.63 | 1.77 | 2.02 | 0.0108 | 0.0123 | 0.00492 | 0.0344 | 0.0243 | 0.189 | 0.0274 | 0.0113 |
| C[C@]1(O)C[C@@H](c2nc(-c3ccc4ccc(-c5ccccc5)nc4c3)c3c(N)nccn32)C1 [Linsitinib (OSI-906)] + Cc1nc(Nc2ncc(C(=O)Nc3c(C)cccc3Cl)s2)cc(N2CCN(CCO)CC2)n1 [dasatinib] | > 10000 | 2970 | > 10000 | 2600 | > 10 | > 10000 | > 10000 | > 10000 | 2.28 | 1.89 | 2.64 | 2.2 | 3.31 | 2.43 | 2.3 | 3.19 | 0.592 | 0.361 | 0.689 | 0.259 | 0.824 | 0.55 | 0.527 | 0.647 |
| Cc1ccc(F)c(NC(=O)Nc2ccc(-c3cccc4[nH]nc(N)c34)cc2)c1 [Linifanib (ABT-869)] + Cc1nc(Nc2ncc(C(=O)Nc3c(C)cccc3Cl)s2)cc(N2CCN(CCO)CC2)n1 [dasatinib] | 1870 | 3710 | > 10000 | 7590 | 9.11 | 3450 | 4000 | > 10000 | 2.25 | 2.4 | 2.63 | 2.21 | 3.28 | 2.58 | 2.33 | 3.5 | 0.312 | 0.244 | 0.557 | 0.213 | 0.279 | 0.231 | 0.27 | 0.729 |
| O=C(Nc1c[nH]nc1-c1nc2cc(CN3CCOCC3)ccc2[nH]1)NC1CC1 [AT9283] + Cc1nc(Nc2ncc(C(=O)Nc3c(C)cccc3Cl)s2)cc(N2CCN(CCO)CC2)n1 [dasatinib] | 672 | 48.8 | 48.7 | 134 | 0.633 | 253 | 128 | 306 | 1.75 | 1.18 | 1.19 | 1.67 | 2.4 | 1.83 | 1.46 | 1.87 | 0.00616 | 0.0114 | 0.00871 | 0.0645 | 0.0108 | 0.0526 | 0.0379 | 0.0134 |
| COc1cc2c(Nc3ccc(Br)cc3F)ncnc2cc1OCC1CCN(C)CC1 [Vandetanib (Zactima)] + Cc1nc(Nc2ncc(C(=O)Nc3c(C)cccc3Cl)s2)cc(N2CCN(CCO)CC2)n1 [dasatinib] | > 10000 | 305 | 5420 | 2210 | 7.71 | 1490 | 1130 | 1880 | 2.48 | 1.82 | 2.55 | 2.07 | 3.11 | 2.46 | 2.01 | 2.64 | 0.456 | 0.0849 | 0.332 | 0.0882 | 0.366 | 0.161 | 0.157 | 0.0159 |
| COCCOc1ccc2c(c1)ncn2-c1ccc2cccc(N3CCC(N)CC3)c2n1 + Cc1nc(Nc2ncc(C(=O)Nc3c(C)cccc3Cl)s2)cc(N2CCN(CCO)CC2)n1 [dasatinib] | 1690 | 85.4 | 683 | 471 | 3.2 | 1810 | 1880 | 2910 | 2.36 | 1.73 | 1.86 | 1.85 | 2.84 | 2.2 | 2.23 | 3.4 | 0.041 | 0.0189 | 0.00646 | 0.2 | 0.0463 | 0.261 | 0.123 | 0.0088 |
| O=C1c2ccccc2-c2n[nH]c3cccc1c23 + Cc1nc(Nc2ncc(C(=O)Nc3c(C)cccc3Cl)s2)cc(N2CCN(CCO)CC2)n1 [dasatinib] | > 10000 | 6750 | 5350 | 2880 | > 10 | 6490 | > 10000 | > 10000 | 2.5 | 2.22 | 2.31 | 2.12 | 3.27 | 2.45 | 2.38 | 3.27 | 0.629 | 0.261 | 0.351 | 0.106 | 0.693 | 0.407 | 0.558 | 0.529 |
| OCCn1cc(-c2ccc3c(c2)CC/C3=N\O)c(-c2ccncc2)n1 [GDC-0879] + Cc1nc(Nc2ncc(C(=O)Nc3c(C)cccc3Cl)s2)cc(N2CCN(CCO)CC2)n1 [dasatinib] | > 10000 | 4230 | > 10000 | > 10000 | > 10 | > 10000 | > 10000 | > 10000 | 2.62 | 2.12 | 2.39 | 2.86 | 3.55 | 3.05 | 2.36 | 3.45 | 0.686 | 0.354 | 0.568 | 0.738 | 0.804 | 0.716 | 0.605 | 0.894 |
| CC(=O)c1c(C)c2cnc(Nc3ccc(N4CCNCC4)cn3)nc2n(C2CCCC2)c1=O.Cl + Cc1nc(Nc2ncc(C(=O)Nc3c(C)cccc3Cl)s2)cc(N2CCN(CCO)CC2)n1 [dasatinib] | 1190 | 19 | 174 | 179 | > 10 | 523 | 231 | 1530 | 2.1 | 1.32 | 1.87 | 1.71 | 2.92 | 2.06 | 1.8 | 2.58 | 0.368 | 0.0923 | 0.174 | 0.0887 | 0.566 | 0.186 | 0.0419 | 0.166 |
| CC(C)c1cnn2c(NCc3ccccc3)cc(NCCCCCCN)nc12.Cl [BS-181 HCl] + Cc1nc(Nc2ncc(C(=O)Nc3c(C)cccc3Cl)s2)cc(N2CCN(CCO)CC2)n1 [dasatinib] | > 10000 | 2870 | 7190 | > 10000 | > 10 | > 10000 | > 10000 | > 10000 | 2.46 | 1.94 | 2.72 | 2.34 | 3.45 | 2.63 | 2.55 | 4.39 | 0.67 | 0.344 | 0.438 | 0.6 | 0.942 | 0.657 | 0.672 | 1.11 |

Reference: the supplement of paper PMC8149375
